The record followed here is ChEMBL document CHEMBL1135189, “Discovery of non-zwitterionic GABA(A) receptor full agonists and a superagonist” (Bioorg Med Chem Lett, 2002).

What is called EC50 is the concentration needed to bring the measured effect to its halfway point. Read a low EC50 as higher potency in that assay.

Each structure is given as a SMILES string.

What all share (format): functional
The target of test [1] is GABA-A receptor; anion channel. The test can be described thus: Activation of chloride ion uptake into mouse brain synaptoneurosomes, no net uptake at […].
For test [2], the target named is GABA-A receptor; anion channel. The test can be described thus: Activation of chloride ion uptake into mouse brain synaptoneurosomes.
For test [3], the target named is T1, GABA-A receptor; anion channel (Mus musculus) (UniProt Q8BHJ7+P26048+Q8QZW7+P50571+Q9R0Y8+P22723+A2AMW3+P62812+Q9JLF1+P26049+P22933+Q9D6F4+P63080+P27681+P16305). Nature of the test: Agonistic activity against GABA-A receptor chloride uptake, full agonist.
Test [4] has as its target T1, GABA-A receptor; anion channel (Mus musculus). The test can be described thus: Agonistic activity against GABA-A receptor chloride uptake, super-agonist.
Test [5] shares this target. The test can be described thus: Agonistic activity against GABA-A receptor chloride uptake, partial agonist.

As to `NCCCC(=O)NCCN`, the EC50 in test [1] was greater than 4000 µM.

`CC(=O)NCCCCNC(=O)CCCN`: a half-maximal response in test [2] (EC50) required 414 µM. In addition, the Emax in test [3] amounted to 549.

With `NCCCC(=O)NCCCCNC(=O)CCCN`, in test [4], the Emax amounted to 578. Besides, the EC50 in test [2] was determined as 475 µM.

For `NCCCC(=O)NCCCCCCNC(=O)CCCN`, in test [2], the EC50 amounted to 643 µM. In addition, the Emax in test [3] was found to be 433.

As to `Oc1noc2c1CCNC2` [GABOXADOL], a half-maximal response in test [2] (EC50) required 335 µM.

Regarding `NCCCC(=O)NCCNC(=O)CCCN`, a half-maximal response in test [2] (EC50) required 733 µM. The molecule further showed an Emax in test [5] of 264.

In the case of `NCCCC(=O)NCCNCC(=O)O`, the EC50 in test [1] is greater than 4000 µM.

In test [2], `CCCCNC(=O)CCCN` displayed an EC50 of 340 µM. Further, the Emax in test [5] worked out at 362.

As to `NCCCC(N)=O`, in test [2], the EC50 is 317 µM. The same molecule yielded an Emax in test [5] of 307.

Molecule `NCCCCNC(=O)CCCN` registered an EC50 in test [2] of 1140 µM. In addition, the Emax in test [3] is 497.
